Measured values reported in paper PMC8881610 (Nature Communications, 2022).
Positions count from the first letter of the chain named.

Legend:
Assay in all cases: Whole-cell binding assay, competition with 125I-GIP1-42
Design in all cases: acylated tirzepatide to the full-length or modified; Flag; expressed in transfected cells
GIPR [1] = biological target: T1, GIPR (Homo sapiens, UniProt P48546, Y141A); conditions: GIPR Y141A, CHO-K1
T1 sequence (P48546 22-466 Y141A): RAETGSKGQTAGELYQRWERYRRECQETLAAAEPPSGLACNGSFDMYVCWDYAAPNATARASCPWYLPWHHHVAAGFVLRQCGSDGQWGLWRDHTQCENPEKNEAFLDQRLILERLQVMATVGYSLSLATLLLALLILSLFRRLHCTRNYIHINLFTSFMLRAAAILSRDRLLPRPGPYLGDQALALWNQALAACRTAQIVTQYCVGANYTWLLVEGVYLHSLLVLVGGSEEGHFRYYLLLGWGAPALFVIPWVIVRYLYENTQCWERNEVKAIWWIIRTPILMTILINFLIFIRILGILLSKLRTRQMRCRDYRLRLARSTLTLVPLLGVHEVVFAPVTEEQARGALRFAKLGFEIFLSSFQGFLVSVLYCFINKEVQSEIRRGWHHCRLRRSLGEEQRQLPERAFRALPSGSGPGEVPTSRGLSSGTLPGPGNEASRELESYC
Outline: (§1)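 Transiently transfected CHO-K1 cells expressing WT or mutant GIPR were washed in F-12 with 0.1% BSA or 0.1% casein and 33 mM HEPES, then incubated 2 h at 37 °C. After ice-cold PBS washes, cells were lysed and bound radioactivity counted (CPM).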

GIPR [2] = biological target: T2, GIPR (Homo sapiens, UniProt P48546, D191A); conditions: GIPR D191A, CHO-K1
T2 sequence (P48546 22-466 D191A): T1 sequence (P48546 22-466 Y141A) with A120Y, D170A
Outline: as §1

GIPR [3] = biological target: T3, GIPR (Homo sapiens, UniProt P48546, W90A); conditions: GIPR W90A, CHO-K1
T3 sequence (P48546 22-466 W90A): T1 sequence (P48546 22-466 Y141A) with W69A, A120Y
Outline: as §1

GIPR [4] = biological target: T4, GIPR (Homo sapiens, UniProt P48546, R370A); conditions: GIPR R370A, CHO-K1
T4 sequence (P48546 22-466 R370A): T1 sequence (P48546 22-466 Y141A) with A120Y, R349A
Outline: as §1

[5] = read-out: binding pIC50 (converted)

Structure (SMILES) | binding Span (GIPR [1]) [% WT] | IC50 (GIPR [1]; [5]) [nM] | binding Span (GIPR [2]) [% WT] | IC50 (GIPR [2]; [5]) [nM] | binding Span (GIPR [3]) [% WT] | IC50 (GIPR [3]; [5]) [nM] | binding Span (GIPR [4]) [% WT] | IC50 (GIPR [4]; [5]) [nM] | binding pIC50 (GIPR [1]) | binding pIC50 (GIPR [2]) | binding pIC50 (GIPR [3]) | binding pIC50 (GIPR [4])
CCCCCCCCCCCCCCCC(=O)N[C@@H](CCC(=O)NCCCC[C@H](NC(=O)[C@H](CC(=O)O)NC(=O)[C@H](CO)NC(=O)[C@@H](NC(=O)[C@H](Cc1ccccc1)NC(=O)[C@@H](NC(=O)CNC(=O)[C@H](CCC(N)=O)NC(=O)C(C)(C)NC(=O)[C@@H](N)Cc1c[nH]cn1)[C@@H](C)O)[C@@H](C)O)C(=O)N[C@@H](CO)C(=O)N[C@@H](CCCCN)C(=O)N[C@@H](Cc1ccc(O)cc1)C(=O)N[C@@H](CC(C)C)C(=O)N[C@@H](CC(=O)O)C(=O)N[C@@H](CCC(=O)O)C(=O)N[C@@H](CCCNC(=N)N)C(=O)N[C@@H](C)C(=O)N[C@@H](C)C(=O)N[C@@H](CCC(N)=O)C(=O)N[C@@H](CC(=O)O)C(=O)N[C@@H](Cc1ccccc1)C(=O)N[C@H](C(=O)N[C@@H](CCC(N)=O)C(=O)N[C@@H](Cc1c[nH]c2ccccc12)C(=O)N[C@@H](CC(C)C)C(=O)N[C@@H](CC(C)C)C(=O)N[C@@H](CC(=O)O)C(=O)NCC(=O)NCC(=O)N1CCC[C@H]1C(=O)N[C@@H](CO)C(=O)N[C@@H](CO)C(=O)NCC(=O)N[C@@H](C)C(=O)N1CCC[C@H]1C(=O)N1CCC[C@H]1C(=O)N1CCC[C@H]1C(=O)N[C@@H](CO)C(N)=O)C(C)C)C(=O)O [Peptide 20] | 14.88 ± 1.95 | 2.4 | 12.29 ± 1.02 | 9.12 | 3.87 ± 1.12 | 2.69 | 22.84 ± 2.01 | 5.62 |  |  |  | 
CC[C@H](C)[C@H](NC(=O)[C@H](CC(C)C)NC(=O)[C@H](Cc1c[nH]c2ccccc12)NC(=O)[C@H](CCC(N)=O)NC(=O)[C@@H](NC(=O)[C@H](Cc1ccccc1)NC(=O)[C@H](C)NC(=O)[C@H](CCCCNC(=O)COCCOCCNC(=O)COCCOCCNC(=O)CC[C@H](NC(=O)CCCCCCCCCCCCCCCCCCC(=O)O)C(=O)O)NC(=O)[C@H](CCC(N)=O)NC(=O)[C@H](C)NC(=O)[C@@H](NC(=O)[C@H](CCCCN)NC(=O)[C@H](CC(=O)O)NC(=O)[C@H](CC(C)C)NC(=O)C(C)(C)NC(=O)[C@@H](NC(=O)[C@H](CO)NC(=O)[C@H](Cc1ccc(O)cc1)NC(=O)[C@H](CC(=O)O)NC(=O)[C@H](CO)NC(=O)[C@@H](NC(=O)[C@H](Cc1ccccc1)NC(=O)[C@@H](NC(=O)CNC(=O)[C@H](CCC(=O)O)NC(=O)C(C)(C)NC(=O)[C@@H](N)Cc1ccc(O)cc1)[C@@H](C)O)[C@@H](C)O)[C@@H](C)CC)[C@@H](C)CC)C(C)C)C(=O)N[C@@H](C)C(=O)NCC(=O)NCC(=O)N1CCC[C@H]1C(=O)N[C@@H](CO)C(=O)N[C@@H](CO)C(=O)NCC(=O)N[C@@H](C)C(=O)N1CCC[C@H]1C(=O)N1CCC[C@H]1C(=O)N1CCC[C@H]1C(=O)N[C@@H](CO)C(N)=O [Tirzepatide] |  |  |  |  |  |  | 10.40 ± 2.67 |  | N.B. | N.B. | N.B. | N.B.
